# Test results from patent publication US20130150430A1, “Methods for Impairing the P53/HDM2 Auto-Regulatory Loop in Multiple Myeloma Development Using mIR-192, mIR-194 and mIR-215” (THE OHIO STATE UNIVERSITY, priority 2011, published 2013).
# Test system: miR-192 and miR-194 in WT TP53 MM cell lines
# Assay: qRT-PCR of miRNAs after demethylation agent
# Format: cell-based, human
# Conditions: 10 μM, 3 days, vs DMSO
smiles,measurement,value
Nc1ncn([C@@H]2O[C@H](CO)[C@@H](O)[C@H]2O)c(=O)n1 [Azacytidine],expression of miR-194-2-192 cluster miRNAs,increased
